In PMC10459838 (Veterinary Sciences, 2023):
Like-named read-outs stand apart in the source and are kept apart here.

Assays:
[1] = Cell viability assay (MTT, Cell Proliferation Kit I); assay type: cell-based, feline; conditions: cat
Protocol: (§1) The Crandell-Reese feline kidney (CRFK) cells utilized in this study were purchased from American Type Culture Collection (ATCC, Manassas, VA, USA), and cultured in Eagle’s Minimum Essential Medium (EMEM) medium supplemented with 10% fetal bovine serum (FBS), 1% antibiotics (penicillin and streptomycin), and 1% non-essential amino acids. The reagents were obtained from ATCC. The CRFK cells were incubated at 37 °C with 5% CO2.
(§2) The cell viability of CRFK cells was measured using a Cell Proliferation Kit I (MTT) (Roche Applied Science, Indianapolis, IN, USA), following the manufacturer’s instructions. […] After incubation for 48 h, 10 μL of MTT solution (0.5 mg/mL in phosphate-buffered saline) was added to each well. The plate was incubated for 4 h at 37 °C to allow the formation of formazan crystals. Following incubation, 1% sodium dodecyl sulfate (100 μL) solution was added to dissolve the crystals.

[2] = tested on: CRFK cells; test: as above; assay type: cell-based, feline
Protocol: as §1, §2

[3] = tested on: FIPV serotype II strain (WSU-79-1146); test: Antiviral efficacy against FIPV replication in CRFK cells, viral load by qRT-PCR; assay type: cell-based, feline infectious peritonitis virus; conditions: for Viral load (FIPV RNA copies) / FIPV viral copies with GS441524: GS441524 25 µM; for Viral load (FIPV RNA copies): inoculum […] 10^4 TCID50/mL; for Selectivity index (SI) = (mean CC50)/(mean EC50): against FIPV in CRFK cells
[4] = tested on: CRFK cells; conditions: 48 h
[5] = tested on: FIPV; parameters: method as in earlier work; conditions: ref 39 (Jiao, Yan et al.); cited from earlier work
[6] = tested on: COVID-19; parameters: method as in PMID 34933447; conditions: co-administered with ritonavir within 3 to 5 days of COVID-19 symptom onset; cited from earlier work
[7] = CRFK cells treated with drugs for 48 h, MTT assay (Figure 5), read-out: 50% cytotoxic concentration (CC50)
[8] = Alphacoronavirus 1, CRFK, 48 h, CRFK cells, FIPV […] 10^4 TCID50/mL, 48 h, qRT-PCR, read-out: 50% effective concentration (EC50) against FIPV replication
[9] = CRFK cells, FIPV […] 10^4 TCID50/mL, 48 h, qRT-PCR, read-out: 50% effective concentration (EC50) against FIPV replication
[10] = CRFK cells (Crandell-Reese feline kidney), CRFK cells treated with drugs for 48 h, MTT assay (Figure 5), read-out: 50% cytotoxic concentration (CC50)

Structure (SMILES): N#C[C@@]1(c2ccc3c(N)ncnn23)O[C@H](CO)[C@@H](O)[C@H]1O [GS441524, GS-441524]
- CC50 at 48 h [1, 7]: 260 µM
- CC50 [2, 7]: 260 µM
- Cytopathic effects (CPEs) in FIPV-infected cells ([3]; 0.5 µM, 10-fold dilutions): no CPEs observed in cells
- Reduction in FIPV copy number ([3]; 0.98 µM, two-fold dilutions, 48 hpi): 22.5%
- Lowest concentration with anti-FIPV efficacy compared to no-drug group ([3]; 10-fold dilutions, 48 hpi): 0.5 µM
- EC50 [3, 8]: 1.57 µM
- inhibition at 0.5 µM ([3]; Alphacoronavirus 1, CRFK, 0.5 µM, 10-fold dilutions, 48 hpi): 85%
- inhibition at […] ([3]; Alphacoronavirus 1, CRFK, 7.8 µM, two-fold dilutions, 48 hpi): 98.3%
- EC50 [3, 9]: 1.6 µM
- Viral load (FIPV RNA copies) ([3]; 0 hpi (applied at inoculation, remained), 24 h): 2.58 × 10^4 per ml
- Viral load (FIPV RNA copies) ([3]; 0 hpi, 48 h): 1.97 × 10^4 per ml
- Viral load (FIPV RNA copies) ([3]; 0 hpi, 72 h): 2.04 × 10^4 per ml
- Viral load (FIPV RNA copies) ([3]; +1 hpi (applied 1 h post inoculation), 24 h): 2.84 × 10^4 per ml
- Viral load (FIPV RNA copies) ([3]; +1 hpi, 48 h): 1.52 × 10^4 per ml
- Viral load (FIPV RNA copies) ([3]; +1 hpi, 72 h): 1.39 × 10^4 per ml
- FIPV viral copies with GS441524 ([3]; FIPV inoculum […] 10^2 TCID50/mL, 48 h): 4.60 × 10^1 per ml
- FIPV viral copies with GS441524 ([3]; FIPV inoculum […] 10^2 TCID50/mL, 72 h): 2.36 × 10^1 per ml
- FIPV viral copies with GS441524 ([3]; FIPV inoculum […] 10^3 TCID50/mL, 48 h): 3.48 × 10^2 per ml
- FIPV viral copies with GS441524 ([3]; FIPV inoculum […] 10^3 TCID50/mL, 72 h): 2.09 × 10^2 per ml
- FIPV viral copies with GS441524 ([3]; FIPV inoculum […] 10^4 TCID50/mL, 48 h): 2.76 × 10^3 per ml
- FIPV viral copies with GS441524 ([3]; FIPV inoculum […] 10^4 TCID50/mL, 72 h): 3.24 × 10^3 per ml
- Viral load (FIPV RNA copies) ([3]; −2 & +1 hpi (applied 2 h before, removed, applied again at 1 hpi), 24 h): 2.47 × 10^4 per ml
- Viral load (FIPV RNA copies) ([3]; −2 hpi (applied 2 h before inoculation, removed before inoculation), 24 h): 1.97 × 10^4 per ml
- Viral load (FIPV RNA copies) ([3]; −2 hpi, 48 h): 2.94 × 10^5 per ml
- Viral load (FIPV RNA copies) ([3]; −2 hpi, 72 h): 6.89 × 10^6 per ml
- Lowest concentration with antiviral efficacy ([3]; two-fold dilutions, 48 hpi): 0.98 µM

Structure (SMILES): CC(C)C(=O)OC[C@H]1O[C@@H](n2ccc(NO)nc2=O)[C@H](O)[C@@H]1O [Molnupiravir]
- CC50 at 48 h [1, 10]: 235 µM
- CC50 [2, 7]: 235 µM
- Concentration as high as which the drug could be used safely with minimal cytotoxicity ([2]; CRFK cells, 48 h, MTT staining): 63 µM
- EC50 [3, 8]: 8 µM
- EC50 [3, 9]: 8.04 µM
- Selectivity index (SI) = (mean CC50)/(mean EC50) [3]: 29.3
- Selectivity index (SI) = (mean CC50)/(mean EC50) ([3]; listed as molnupiravir): 29.27
- Highest concentration with essentially no cytotoxicity ([4]; CRFK cells, CellTox Green): 63 µM

Structure (SMILES): CC(C)(C)[C@H](NC(=O)C(F)(F)F)C(=O)N1C[C@H]2[C@@H]([C@H]1C(=O)N[C@H](C#N)C[C@@H]1CCNC1=O)C2(C)C [Nirmatrelvir]
- CC50 at 48 h [1, 7]: 279 µM
- Concentration as high as which the drug could be used safely with minimal cytotoxicity ([2]; CRFK cells, 48 h, MTT staining): 63 µM
- Cytopathic effects (CPEs) in FIPV-infected cells ([3]; 5 µM, 10-fold dilutions): no CPEs in cells
- EC50 ([3]; Alphacoronavirus 1, CRFK, 48 h, read-out: 50% effective concentration (EC50) against FIPV replication, CRFK cells, FIPV […] 10^4 TCID50/mL, 48 h, qRT-PCR): 2.46 µM
- inhibition at 5 µM ([3]; Alphacoronavirus 1, CRFK, read-out: Inhibition of FIPV replication): 80%
- Selectivity index (SI) = (mean CC50)/(mean EC50) [3]: 113.7
- Selectivity index (SI) = (mean CC50)/(mean EC50) ([3]; listed as nirmatrelvir): 113.67
- EC50 ([3]; read-out: 50% effective concentration (EC50) against FIPV replication, CRFK cells, FIPV […] 10^4 TCID50/mL, 48 h, qRT-PCR): 2.5 µM
- Highest concentration with essentially no cytotoxicity ([4]; CRFK cells, CellTox Green): 63 µM
- EC50 [5]: 2.52 µM
- Reduction in hospitalizations and death [6]: 89%

Structure (SMILES): CC(C)c1nc(CN(C)C(=O)N[C@H](C(=O)N[C@@H](Cc2ccccc2)C[C@H](O)[C@H](Cc2ccccc2)NC(=O)OCc2cncs2)C(C)C)cs1 [Ritonavir]
- Concentration as high as which the drug could be used safely with minimal cytotoxicity ([2]; cat, 48 h): 16 µM
- Cytopathic effects (CPEs) in FIPV-infected cells ([3]; 5 µM, 10-fold dilutions): induced CPEs
- Cytopathic effects (CPEs) in FIPV-infected cells ([3]; 50 µM, 10-fold dilutions): induced CPEs
- EC50 [3, 8]: 17.6 µM
- Highest concentration with essentially no cytotoxicity ([4]; cat): 16 µM
- Lowest concentration at which cytotoxicity was observed ([4]; cat): 31 µM

Structure (SMILES): N#CC[C@H](C1CCCC1)n1cc(-c2ncnc3[nH]ccc23)cn1 [Ruxolitinib]
- CC50 at 48 h ([1]; 50% cytotoxic concentration (CC50)): 338 µM
- CC50 ([2]; cat, 48 h): 338 µM
- EC50 ([3]; Alphacoronavirus 1, CRFK, 48 h, read-out: 50% effective concentration (EC50) against FIPV replication): 43.6 µM
- Lowest concentration at which cytotoxicity was observed ([4]; CRFK cells, cytotoxicity assay): 250 µM

Structure (SMILES): C/C(O)=C(\C#N)C(=O)Nc1ccc(C(F)(F)F)cc1 [Teriflunomide]
- CC50 at 48 h [1, 10]: 134 µM
- Concentration as high as which the drug could be used safely with minimal cytotoxicity ([2]; CRFK cells, 48 h, MTT staining): 62.5 µM
- EC50 [3, 8]: 49.6 µM
- Highest concentration with essentially no cytotoxicity ([4]; cat): 63 µM
